Assay results taken from US7034047B2, “Triazole derivative” (Astellas Pharma, Inc., priority 2000, dated 2006).

Assays:
[1] = molecular target: T1, GLYT1 subtype of the glycine transporter (Rattus norvegicus, UniProt P28572); test: [3H]-glycine uptake assay in C6 glioma cells (action of inhibiting glycine transporter); format: cell-based; conditions: 20 min at 37° C., read-out: GLYT-inhibiting activity IC50
T1 construct: C6 glioma cell expressing GLYT1 subtype of the glycine transporter; host or cells: C6 glioma cells
T1 sequence (P28572 1-638): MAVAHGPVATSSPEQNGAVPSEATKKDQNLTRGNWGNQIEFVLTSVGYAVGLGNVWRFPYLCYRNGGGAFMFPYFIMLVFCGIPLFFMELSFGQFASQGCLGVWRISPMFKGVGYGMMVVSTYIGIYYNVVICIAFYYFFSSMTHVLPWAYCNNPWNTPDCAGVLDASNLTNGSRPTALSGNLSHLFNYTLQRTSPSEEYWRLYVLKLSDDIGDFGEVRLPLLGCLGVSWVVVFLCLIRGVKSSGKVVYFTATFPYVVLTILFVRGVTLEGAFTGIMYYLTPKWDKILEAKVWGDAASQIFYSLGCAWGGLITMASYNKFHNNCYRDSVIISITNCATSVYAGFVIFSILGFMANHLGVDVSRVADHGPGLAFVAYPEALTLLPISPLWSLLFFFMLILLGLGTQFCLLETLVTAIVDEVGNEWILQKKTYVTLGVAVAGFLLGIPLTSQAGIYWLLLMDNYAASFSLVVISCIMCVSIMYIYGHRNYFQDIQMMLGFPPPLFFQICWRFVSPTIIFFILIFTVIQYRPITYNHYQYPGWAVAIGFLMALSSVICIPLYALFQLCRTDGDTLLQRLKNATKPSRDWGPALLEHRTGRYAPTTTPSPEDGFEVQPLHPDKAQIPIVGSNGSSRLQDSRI
Procedure: 1. Action of Inhibiting Glycine Transporter
C6 glioma cell (American Type Culture Collection) was cultured in DMEM containing 10% fetal bovine serum, 100 units/ml penicillin G and 0.1 mg/ml streptomycin sulfate in a CO2 incubator under conditions of 5% CO2 and 37° C.
[^3H]-glycine uptake was performed by the method of Gomeza, et al.
C6 glioma cells were plated out at a concentration of 2×10^4 cells/well in a 96-well plate (Culturplate, Packard Co.), for culturing for 2 days. Subsequently, [^3H]-glycine uptake was tested. The cell was rinsed once in a buffer (150 mM NaCl, 5 mM KCl, 1 mM CaCl2, 1 mM MgCl2, 10 mM glucose, 5 mM L-alanine, 10 mM Hepes-Na, pH 7.4), followed by subsequent addition of the buffer, for incubation at 37° C. for 10 minutes.
After incubation, the buffer was exchanged to a reaction buffer including [^3H]-glycine (about 0.2 μM, 41 Ci/mmol, New England Nuclear)and a compound to be assessed, for incubation at 37° C. for another 20 minutes. After 20-min reaction, the reaction mixture was rinsed in ice-cold PBS (phosphate buffered saline). The cell was dissolved in 0.1N NaOH solution, to assay the radioactivity incorporated with a liquid scintillation counter. The specific incorporation was defined as a portion substituted with 3 mM sarcosine in the total incorporation. The test compound was assessed by determining the incorporation-inhibiting ratio of the specific incorporation.

Row | IC50 [1] | melting point | SMILES
1 | 410 nM | – | COCCCc1nnc(-c2ccc(-c3ccccc3)nc2)n1-c1cccc(C#N)c1C [Example 5, 3-[3-(3-Methoxypropyl)-5-(6-phenylpyridin-3-yl)-4H-1,2,4-triazol-4-yl]-2-methylbenzonitrile]
2 | 1000 nM | – | COc1ccccc1-n1c(C)nnc1-c1ccc(-c2ccccc2)cc1 [Compound 1, 3-(biphenyl-4-yl)-4-(2-methoxyphenyl)-5-methyl-4H-1,2,4-triazole, reference compound]
3 | 940 nM | – | CN(CC1CCCO1)c1nnc(-c2ccc(-c3ccccc3)cc2)n1-c1ccccc1F (stereo not shown) [Example 236]
4 | 100 nM | – | CC(C)c1nnc(-c2ccc(-c3ccccc3)nc2)n1-c1cccc2nonc12 [Example 2, 4-[3-Isopropyl 5-(6-phenylpyridin-3-yl)-4H-1,2,4-triazol-4-yl]-2,1,3-benzooxadiazole]
5 | 350 nM | – | CCc1nnc(-c2ccc(-c3ccccc3)cc2)n1-c1ccccc1OC [Compound 3, 3-(biphenyl-4-yl)-5-ethyl-4-(2-methoxyphenyl)-4H-1,2,4-triazole, reference compound]
6 | – | 199 to 200 °C | CSc1nnc(-c2ccc(-c3ccccc3)cc2)n1-c1ccccc1F [Example 12, 3-Biphenyl-4-yl-4-(2-fluorophenyl)-5-methylsulfanyl-4H-1,2,4-triazole]
7 | 200 nM | – | Cc1nnc(-c2ccc(-c3cccs3)cc2)n1-c1ccccc1F [Example 10, 4-(2-Fluorophenyl)-3-methyl-5-(4-thiophen-2-ylphenyl)-4H-1,2,4-triazole]
8 | 1000 nM | – | CC(C)c1nnc(-c2cnc(-c3ccccc3)c(Cl)c2)n1-c1c(F)cccc1F [Example 112]
9 | 4600 nM | – | c1ccc(-c2ccc(-c3nnc(-c4ccco4)n3-c3ccccc3)cc2)cc1 [Compound 2, 3-(biphenyl-4-yl)-5-(furan-2-yl)-4-phenyl-4H-1,2,4-triazole, reference compound]
10 | 4600 nM | – | CCc1nnc(-c2ccc(-c3ccccc3)cc2)n1-c1ccccc1Oc1cccnc1 [Example 279]
11 | 1600 nM | – | Fc1ccccc1-n1c(CN2CCc3sccc3C2)nnc1-c1ccc(-c2ccccc2)cc1 [Example 202]
12 | 250 nM | – | COCCN(C)c1nnc(-c2ccc(-c3ccccc3)nc2)n1-c1ccccc1C#N [Example 8, 2-{3-[N-(2-Methoxyethyl)-N-methylamino]-5-(6-phenylpyridin-3-yl)-4H-1,2,4-triazol-4-yl}benzonitrile]
13 | 86 nM | – | Cc1nnc(-c2ccc(-c3ccccc3)cc2)n1-c1ccccc1[N+](=O)[O-] [Example 256]
14 | 330 nM | – | COCCN(C)c1nnc(-c2ccc(-c3ccccc3)nc2)n1-c1cccc2nonc12 [Example 9, 4-(2,1,3-Benzooxadiazol-4-yl)-N-(2-methoxyethyl)-N-methyl-5-(6-phenylpyridin-3-yl)-4H-1,2,4-triazol-3-ylamine]
15 | 1500 nM | – | CN(CCCSc1nnc(-c2ccc(-c3ccccc3)cc2)n1-c1ccccc1F)CC(=O)O [Example 157]

Row | SMILES | IC50 [1] | melting point
16 | CC(C)c1nnc(-c2ccc(-c3ccccc3)nc2)n1-c1c(F)cccc1F [Example 1, 5-[4-(2,6-Difluorophenyl)-5-isopropyl-4H-triazol-3-yl]-2-phenylpyridine] | 140 nM | –
